Laboratory results published in patent US20250099478A1, “PLASMA KALLIKREIN INHIBITORS” (Merck Sharp & Dohme LLC, priority 2022, published 2025).

Assays:
Human plasma kallikrein = molecular target: T1, Human plasma kallikrein (Homo sapiens, UniProt P03952); experiment: Plasma Kallikrein Assay; format: biochemical; conditions: purified Human plasma kallikrein 0.5 nM, substrate Acetyl-K-P-R-AFC; read-out: PKal IC50
T1 construct: yields a heavy chain (371 amino acids) and a light chain (248 amino acids); purchased Enzyme Research Laboratories
T1 sequence (P03952 391-638 limits assumed): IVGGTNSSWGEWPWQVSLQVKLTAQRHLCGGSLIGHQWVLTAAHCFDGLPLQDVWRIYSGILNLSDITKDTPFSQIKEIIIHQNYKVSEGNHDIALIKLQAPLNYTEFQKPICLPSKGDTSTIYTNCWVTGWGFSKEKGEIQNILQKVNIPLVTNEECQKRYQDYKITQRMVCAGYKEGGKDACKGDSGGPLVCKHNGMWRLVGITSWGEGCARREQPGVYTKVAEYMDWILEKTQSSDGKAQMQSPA
T1 sequence (P03952 20-390 partner limits assumed): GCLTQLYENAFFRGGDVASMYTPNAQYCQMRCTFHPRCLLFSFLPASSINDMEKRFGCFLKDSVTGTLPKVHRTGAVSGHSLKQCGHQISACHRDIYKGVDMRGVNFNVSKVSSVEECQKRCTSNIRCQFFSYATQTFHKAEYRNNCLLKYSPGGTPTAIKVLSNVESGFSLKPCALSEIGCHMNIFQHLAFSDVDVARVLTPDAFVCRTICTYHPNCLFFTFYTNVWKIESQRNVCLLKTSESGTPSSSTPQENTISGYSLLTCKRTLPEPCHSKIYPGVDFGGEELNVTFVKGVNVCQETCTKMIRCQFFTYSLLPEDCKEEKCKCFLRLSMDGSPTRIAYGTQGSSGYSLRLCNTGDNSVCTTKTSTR
Outline: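 Purified human plasma kallikrein (0.5 nM) hydrolysing fluorogenic Acetyl-K-P-R-AFC ([…]) in 50 mM HEPES pH 7.4, 150 mM NaCl, 5 mM CaCl2, 0.1% PEG 8000, at rt or 37 °C after enzyme–inhibitor equilibration. IC50 from four-parameter logistic fit; Ki via Cheng–Prusoff.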

human factor XIa = molecular target: T2, human factor XIa (Homo sapiens, UniProt P03951); experiment: Factor XIa Assay; format: biochemical; conditions: human factor XIa 0.04 nM, substrate GPR-AFC, 25° C.
T2 construct: with human (0.04 nM) factor XIa
T2 sequence (P03951 388-625 limits assumed): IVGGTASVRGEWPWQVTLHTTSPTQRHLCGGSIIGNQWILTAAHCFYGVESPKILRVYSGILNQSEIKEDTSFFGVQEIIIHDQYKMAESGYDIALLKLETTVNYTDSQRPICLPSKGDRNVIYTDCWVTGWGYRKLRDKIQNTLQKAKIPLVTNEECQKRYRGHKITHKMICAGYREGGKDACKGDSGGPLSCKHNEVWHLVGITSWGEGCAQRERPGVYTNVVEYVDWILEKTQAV
T2 sequence (P03951 19-387 partner limits assumed): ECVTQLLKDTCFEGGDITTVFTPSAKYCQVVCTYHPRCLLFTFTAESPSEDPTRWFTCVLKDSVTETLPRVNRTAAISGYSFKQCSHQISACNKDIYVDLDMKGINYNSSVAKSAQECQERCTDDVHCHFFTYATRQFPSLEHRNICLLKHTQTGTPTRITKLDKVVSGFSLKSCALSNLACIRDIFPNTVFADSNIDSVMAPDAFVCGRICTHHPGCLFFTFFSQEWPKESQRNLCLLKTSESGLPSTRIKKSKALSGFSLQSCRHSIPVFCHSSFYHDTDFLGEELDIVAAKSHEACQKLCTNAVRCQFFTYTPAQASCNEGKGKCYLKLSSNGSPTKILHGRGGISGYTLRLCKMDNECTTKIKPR
Protocol: The effectiveness of a compound of the present invention as an inhibitor of Coagulation factor XIa can be determined using a relevant purified serine protease, and an appropriate synthetic substrate. The rate of hydrolysis of the chromogenic or fluorogenic substrate by the relevant serine protease was measured both in the absence and presence of compounds of the present invention. Assays were conducted at rt or at 37° C. […] A decrease in the rate of fluorescence change in the presence of inhibitor is indicative of enzyme inhibition. Such methods are known to one skilled in the art. The results of this assay are expressed as the half-maximal inhibitory concentrations (IC50), or the inhibitory constant, Ki.
Compounds were pre-incubated for 30 min at 25° C. with human (0.04 nM) factor XIa in 50 mM HEPES buffer with 150 mM sodium chloride, 5 mM calcium chloride, 0.1% PEG 8000, pH 7.4. factor XIa enzymatic activity was determined by addition of the substrate glycine-proline-arginine-7-amido-4-trifluoromethylcoumarin (GPR-AFC) and measurement of the fluorescence at 400/505 nm after a 60 min incubation at 25° C. The % inhibition for each data point was calculated from the data and analyzed using the log (inhibitor) vs. response four parameters equation to determine the half-maximal inhibitory concentrations (IC50). The IC50 were converted to equilibrium inhibitory constants (Ki) using the Cheng-Prusoff equation.

Row | Structure (SMILES) | IC50 (Human plasma kallikrein) | IC50 (human factor XIa)
1 | C[C@H](O)[C@@H](c1ccccc1)n1cc(C(=O)N2CCC[C@@]3(C2)OC(=O)Nc2ccc(Cl)c(F)c23)cn1 [Example 9, (R)-6-Chloro-5-fluoro-1′-(1-((1R,2S)-2-hydroxy-1-phenylpropyl)-1H-pyrazole-4-carbonyl)spiro[benzo[d][1,3]oxazine-4,3′-piperidin]-2(1H)-one] | 29.7 nM | 5590 nM
2 | O=C1Nc2ccc(Cl)c(F)c2[C@@]2(CCCN(C(=O)c3cnc(C(c4ccc(F)cc4)C(F)(F)F)[nH]3)C2)O1 (single isomer, unassigned) [Example 82] | 42.5 nM | 7390 nM
3 | O=C1Nc2ccc(Cl)c(F)c2[C@@]2(CCCN(C(=O)c3cnc([C@@H](O)c4ccc(F)cc4)[nH]3)C2)O1 [Example 77] | 56.6 nM | 8130 nM
4 | O=C1Nc2ccc(Cl)c(F)c2[C@@]2(CCCN(C(=O)c3cnn([C@H](CC4CC4)c4ccccc4)c3)C2)O1 (single isomer, unassigned) [Example 2] | 3.2 nM | 206 nM
5 | O=C1Nc2ccc(Cl)c(F)c2[C@@]2(CCCN(C(=O)c3nnc(C(Cc4ccccc4)c4ccccc4)[nH]3)C2)O1 (single isomer, unassigned) [Example 105] | 17.3 nM | 3600 nM
6 | Cc1cc(Cc2nnc(C(=O)N3CCC[C@@]4(C3)OC(=O)Nc3ccc(Cl)c(F)c34)[nH]2)cc2[nH]ncc12 [Example 124, (R)-6-Chloro-5-fluoro-1′-(5-((4-methyl-1H-indazol-6-yl)methyl)-4H-1,2,4-triazole-3-carbonyl)spiro[benzo[d][1,3]oxazine-4,3′-piperidin]-2(1H)-one] | 13.5 nM | 7760 nM
7 | CC[C@H](c1ccc(F)cc1)c1nnc(C(=O)N2CCC[C@@]3(C2)OC(=O)Nc2ccc(Cl)c(F)c23)[nH]1 (single isomer, unassigned) [Example 85] | 16.7 nM | 3110 nM
8 | O=C1Nc2ccc(Cl)c(F)c2[C@@]2(CCCN(C(=O)c3nnc(C(c4ccccc4)C4CC4)[nH]3)C2)O1 (single isomer, unassigned) [Example 107] | 11.2 nM | 1910 nM
9 | CCC(c1cc(C)c2nc[nH]c2c1)n1cc(C(=O)N2CCC[C@@]3(C2)OC(=O)Nc2ccc(Cl)c(F)c23)cn1 (single isomer, unassigned) [Example 46, (4R)-6-Chloro-5-fluoro-1′-(1-((S or R)-1-(4-methyl-1H-benzo[d]imidazol-6-yl)propyl)-1H-pyrazole-4-carbonyl)spiro[benzo[d][1,3]oxazine-4,3′-piperidin]-2(1H)-one] | 1.2 nM | 846 nM
10 | CCC(c1ccc(F)cc1)n1cc(C(=O)N2CCC[C@@]3(C2)OC(=O)Nc2ccc(Cl)c(F)c23)cn1 (single isomer, unassigned) [Example 26] | 6.9 nM | 7640 nM
11 | C[C@@H](O)[C@H](c1ccccc1)n1cc(C(=O)N2CCC[C@@]3(C2)OC(=O)Nc2ccc(Cl)c(F)c23)cn1 [Example 16, (R)-6-Chloro-5-fluoro-1′-(1-((1S,2R)-2-hydroxy-1-phenylpropyl)-1H-pyrazole-4-carbonyl)spiro[benzo[d][1,3]oxazine-4,3′-piperidin]-2(1H)-one] | 40.3 nM | 1450 nM
12 | O=C1Nc2ccc(Cl)c(F)c2[C@@]2(CCCN(C(=O)c3nnc(Cc4ccccc4)[nH]3)C2)O1 [Example 86, (R)-1′-(5-Benzyl-4H-1,2,4-triazole-3-carbonyl)-6-chloro-5-fluorospiro[benzo[d][1,3]oxazine-4,3′-piperidin]-2(1H)-one] | 24.8 nM | 6890 nM
13 | O=C1Nc2ccc(Cl)c(F)c2[C@@]2(CCCN(C(=O)c3nc(Cc4ccccc4)c[nH]3)C2)O1 [Example 65, (R)-1′-(4-Benzyl-1H-imidazole-2-carbonyl)-6-chloro-5-fluorospiro[benzo[d][1,3]oxazine-4,3′-piperidin]-2(1H)-one] | 19.3 nM | 1770 nM
14 | CCC(c1ccc2ncncc2c1)n1cc(C(=O)N2CCC[C@@]3(C2)OC(=O)Nc2ccc(Cl)c(F)c23)cn1 (single isomer, unassigned) [Example 42] | 14.1 nM | 5230 nM
15 | O=C1Nc2ccc(Cl)c(F)c2[C@@]2(CCCN(C(=O)c3cnn(Cc4ccnc(C(F)(F)F)c4)c3)C2)O1 [Example 7, (R)-6-Chloro-5-fluoro-1′-(1-((2-(trifluoromethyl)pyridin-4-yl)methyl)-1H-pyrazole-4-carbonyl)spiro[benzo[d][1,3]oxazine-4,3′-piperidin]-2(1H)-one] | 37.5 nM | 881 nM
16 | CCC(c1ccc2c(c1)COC2)c1nnc(C(=O)N2CCC[C@@]3(C2)OC(=O)Nc2ccc(Cl)c(F)c23)[nH]1 (single isomer, unassigned) [Example 111] | 3.8 nM | 2820 nM
17 | O=C1Nc2ccc(Cl)c(F)c2[C@@]2(CCCN(C(=O)c3nnc(C(Cc4ccccc4)c4ccccc4)[nH]3)C2)O1 (single isomer, unassigned) [Example 104] | 16.6 nM | 2990 nM

Second part, the molecule after the results:

Row | IC50 (Human plasma kallikrein) | IC50 (human factor XIa) | Structure (SMILES)
18 | 14.9 nM | 7200 nM | CC1(C)CN(C(=O)c2nnc(Cc3ccccc3)[nH]2)C[C@]2(C1)OC(=O)Nc1ccc(Cl)c(F)c12 [Example 89, (R)-1′-(5-Benzyl-4H-1,2,4-triazole-3-carbonyl)-6-chloro-5-fluoro-5′,5′-dimethylspiro[benzo[d][1,3]oxazine-4,3′-piperidin]-2(1H)-one]
19 | 9 nM | 2460 nM | CCC(c1cccc(S(C)(=O)=O)c1)n1cc(C(=O)N2CCC[C@@]3(C2)OC(=O)Nc2ccc(Cl)c(F)c23)cn1 (single isomer, unassigned) [Example 31]
20 | 6.9 nM | 1570 nM | O=C1Nc2ccc(Cl)c(F)c2[C@@]2(CCCN(C(=O)c3cnn(C(CC4CC4)c4ccccc4)c3)C2)O1 (single isomer, unassigned) [Example 29]
21 | 8.2 nM | 2050 nM | CCC(c1ccnc(C(F)(F)F)c1)c1c[nH]c(C(=O)N2CCC[C@@]3(C2)OC(=O)Nc2ccc(Cl)c(F)c23)n1 (single isomer, unassigned) [Example 73, (R)-6-Chloro-5-fluoro-1′-(4-((R or S)-1-(2-(trifluoromethyl)pyridin-4-yl)propyl)-1H-imidazole-2-carbonyl)spiro[benzo[d][1,3]oxazine-4,3′-piperidin]-2(1H)-one]
22 | 20 nM | 4330 nM | CO[C@@H](C)[C@@H](c1ccccc1)n1cc(C(=O)N2CCC[C@@]3(C2)OC(=O)Nc2ccc(Cl)c(F)c23)cn1 [Example 11, (R)-6-Chloro-5-fluoro-1′-(1-((1R,2S)-2-methoxy-1-phenylpropyl)-1H-pyrazole-4-carbonyl)spiro[benzo[d][1,3]oxazine-4,3′-piepridine]-2(1H)-one]
23 | 5.7 nM | 946 nM | CCC(c1ccc(F)cc1)c1c[nH]c(C(=O)N2CCC[C@@]3(C2)OC(=O)Nc2ccc(Cl)c(F)c23)n1 (stereo partly drawn) [Example 70, (4R)-6-Chloro-5-fluoro-1′-(4-(1-(4-fluorophenyl)propyl)-1H-imidazole-2-carbonyl)spiro[benzo[d][1,3]oxazine-4,3′-piperidin]-2(1H)-one]
24 | 13.8 nM | 8750 nM | CCC(c1ccc(F)c(Cl)c1)c1nnc(C(=O)N2CCC[C@@]3(C2)OC(=O)Nc2ccc(Cl)c(F)c23)[nH]1 (single isomer, unassigned) [Example 97]
25 | 21.3 nM | 2700 nM | O=C1Nc2ccc(Cl)c(F)c2[C@@]2(CCCN(C(=O)c3cnc(C(c4ccc(F)cc4)C(F)(F)F)[nH]3)C2)O1 (single isomer, unassigned) [Example 83]
26 | 16.2 nM | 1530 nM | COCC(c1ccccc1)n1cc(C(=O)N2CCC[C@@]3(C2)OC(=O)Nc2ccc(Cl)c(F)c23)cn1 (stereo partly drawn) [Example 14, (4R)-6-Chloro-5-fluoro-1′-(1-(2-methoxy-1-phenylethyl)-1H-pyrazole-4-carbonyl)spiro[benzo[d][1,3]oxazine-4,3′-piperidin]-2(1H)-one]
27 | 4 nM | 382 nM | CCC(O)(c1ccc(F)cc1)c1n[nH]c(C(=O)N2CCC[C@@]3(C2)OC(=O)Nc2ccc(Cl)c(F)c23)n1 (single isomer, unassigned) [Example 128, (R)-6-Chloro-5-fluoro-1′-(3-(UR or S)-1-(4-fluorophenyl)-1-hydroxypropyl)-1H-1,2,4-triazole-5-carbonyl)spiro[benzo[d][1,3]oxazine-4,3′-piperidin]-2(1H)-one]
